Data published in ChEMBL document CHEMBL4765279, “Discovery of a novel series of imidazo[1',2':1,6]pyrido[2,3-d]pyrimidin derivatives as potent cyclin-dependent kinase 4/6 inhibitors” (Eur J Med Chem, 2020).

Tests used:
CDK4/Cyclin D3 = CDK4/Cyclin D3 (Homo sapiens, UniProt P11802); assay: Inhibition of recombinant human full-length N-terminal GST-fused CDK4 (1 to 303 residues)/GST-tagged CyclinD3 (1 to 292 residues) expressed in baculovirus expression system using ULight-elF4E-binding protein 1 peptide as substrate measured after 30 mins by LANCE assay
Chain of CDK4/Cyclin D3 (P11802 whole entry, the tested form may be a part): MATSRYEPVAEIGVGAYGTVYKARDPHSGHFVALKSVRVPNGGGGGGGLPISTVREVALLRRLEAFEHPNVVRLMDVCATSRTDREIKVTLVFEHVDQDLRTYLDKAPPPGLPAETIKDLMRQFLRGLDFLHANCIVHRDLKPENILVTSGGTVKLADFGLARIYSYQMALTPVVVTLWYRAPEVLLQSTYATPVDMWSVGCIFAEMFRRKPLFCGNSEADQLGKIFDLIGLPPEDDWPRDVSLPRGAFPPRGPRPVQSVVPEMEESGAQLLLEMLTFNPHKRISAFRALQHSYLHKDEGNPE
Chain of CDK4/Cyclin D3 (P30281 whole entry, further chain, the tested form may be a part): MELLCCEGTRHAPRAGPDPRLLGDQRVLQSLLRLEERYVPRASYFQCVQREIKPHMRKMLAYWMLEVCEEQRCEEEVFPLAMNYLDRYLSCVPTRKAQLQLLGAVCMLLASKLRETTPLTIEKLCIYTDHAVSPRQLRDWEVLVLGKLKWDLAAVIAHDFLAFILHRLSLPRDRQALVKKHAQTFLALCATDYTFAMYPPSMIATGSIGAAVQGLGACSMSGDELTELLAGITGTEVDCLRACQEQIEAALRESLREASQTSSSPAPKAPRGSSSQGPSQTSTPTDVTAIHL

CDK6/Cyclin D3 = CDK6/Cyclin D3 (Homo sapiens, UniProt Q00534); assay: Inhibition of human full-length N-terminal GST tagged CDK6 (1 to 326 residues)/GST-tagged cyclinD3 (1 to 292 residues) expressed in baculovirus expression system using ULight-elF4E-binding protein 1 peptide as substrate measured after 30 mins by LANCE assay
Chain of CDK6/Cyclin D3 (Q00534 whole entry, looked up, the tested form may be a part): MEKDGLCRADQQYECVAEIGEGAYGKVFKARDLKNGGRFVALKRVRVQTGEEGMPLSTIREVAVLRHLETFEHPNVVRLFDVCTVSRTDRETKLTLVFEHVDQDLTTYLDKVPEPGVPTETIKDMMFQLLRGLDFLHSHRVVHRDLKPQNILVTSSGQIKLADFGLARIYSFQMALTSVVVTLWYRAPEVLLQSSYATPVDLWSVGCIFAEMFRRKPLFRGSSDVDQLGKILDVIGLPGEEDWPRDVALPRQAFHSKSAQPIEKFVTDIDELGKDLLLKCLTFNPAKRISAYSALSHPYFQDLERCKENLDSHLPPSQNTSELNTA

COLO 205 [1] = assay: Antiproliferative activity against human COLO 205 cells assessed as cell growth inhibition measured after 4 to 6 days by celltiter-glo luminescent cell viability assay; assay type: functional, cell-based
U-87 MG = assay: Antiproliferative activity against human U-87 MG cells assessed as cell growth inhibition measured after 4 to 6 days by celltiter-glo luminescent cell viability assay; assay type: functional, cell-based, U-87MG ATCC
COLO 205 [2] = assay: Cell cycle arrest in human COLO 205 cells assessed as accumulation at G0/G1 phase at 200 nM measured after 24 hrs by propidium iodide staining based flow cytometry relative to control; assay type: functional
MDA-MB-468 = assay: Antiproliferative activity against human MDA-MB-468 cells assessed as cell growth inhibition measured after 4 to 6 days by celltiter-glo luminescent cell viability assay; assay type: functional, cell-based

SMILES | IC50 (CDK4/Cyclin D3) | IC50 (CDK6/Cyclin D3) | IC50 (COLO 205 [1]) | IC50 (U-87 MG) | IC50 (MDA-MB-468) | Activity (COLO 205 [2])
CC(=O)c1c(C)c2cnc(Nc3ccc(N4CCNCC4)cc3)nc2n2cc(C3CCCCC3)nc12 | 18.9 nM | 22.2 nM | 121 nM | 122 nM | – | –
Cc1cn2c(n1)c(C#N)c(C)c1cnc(Nc3ccc(N4CCNCC4)cc3)nc12 | 26.5 nM | 33.6 nM | – | – | – | –
CC(=O)c1c(C)c2cnc(Nc3ccc(N4CCNCC4)cn3)nc2n(C2CCCC2)c1=O [PALBOCICLIB] | – | – | 301 nM | 345 nM | 5420 nM | 95.7%
Cc1cn2c(n1)c(C#N)c(C)c1cnc(N)nc12 | 592 nM | 3090 nM | – | – | – | –
Cc1cn2c(n1)c(C#N)c(C)c1cnc(Nc3ccccc3)nc12 | 98.9 nM | 112 nM | – | – | – | –
CC(=O)c1c(C)c2cnc(Nc3ccc(C(=O)N4CCNCC4)cn3)nc2n2cc(C(C)C)nc12 | 5.3 nM | 5.6 nM | 932 nM | 380 nM | – | –
CCN1CCN(Cc2ccc(Nc3ncc(F)c(-c4cc(F)c5nc(C)n(C(C)C)c5c4)n3)nc2)CC1 [ABEMACICLIB] | – | – | – | – | 1140 nM | 95.3%

More lines, main results first:

IC50 (CDK4/Cyclin D3) | IC50 (CDK6/Cyclin D3) | IC50 (COLO 205 [1]) | IC50 (U-87 MG) | IC50 (MDA-MB-468) | SMILES | Activity (COLO 205 [2])
4.7 nM | 5.9 nM | 73.4 nM | 64.8 nM | – | CC(=O)c1c(C)c2cnc(Nc3ccc(N4CCNCC4)cc3)nc2n2cc(C3CCCC3)nc12 | –
3.6 nM | 10.2 nM | 583 nM | 1260 nM | – | CC(=O)c1c(C)c2cnc(Nc3ccc(N4CCNCC4)cc3)nc2n2cc(C)nc12 | –
4 nM | 3.8 nM | 1280 nM | 719 nM | – | CC(=O)c1c(C)c2cnc(Nc3ccc(N4CCC5(CCNC5)C4)cn3)nc2n2cc(C(C)C)nc12 (stereo not given) | –
2.2 nM | 2.5 nM | 356 nM | 165 nM | – | CC(=O)c1c(C)c2cnc(Nc3ccc(CN4CCNCC4)cn3)nc2n2cc(C(C)C)nc12 | –
3.7 nM | 3.7 nM | 290 nM | 291 nM | – | CC(=O)c1c(C)c2cnc(Nc3ccc(N4CCNCC4)cn3)nc2n2cc(C(C)C)nc12 | –
